This test concerns the target T1, Recombinant cryAB(R120G) protein (Homo sapiens, UniProt P02511, R120G).
T1 sequence (P02511 1-175 R120G): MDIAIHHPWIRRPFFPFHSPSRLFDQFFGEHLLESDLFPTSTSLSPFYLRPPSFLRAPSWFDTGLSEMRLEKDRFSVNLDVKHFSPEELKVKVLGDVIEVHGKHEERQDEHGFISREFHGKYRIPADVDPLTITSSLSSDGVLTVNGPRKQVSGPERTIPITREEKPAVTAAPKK
The test can be described thus: Kinetic turbidity aggregation assay of recombinant cryAB(R120G). The test is classed as biochemical. Particulars: for inhibition at 25 µM: 25 μM compound, read-out: % Inhibition of Protein Aggregation, 25 μM cmpd; for inhibition at 25 µM / inhibition at 100 µM: 15 μM cryAB(R120G), 42° C., absorbance at 550 nm; for inhibition at 100 µM: 100 μM compound, read-out: % Inhibition of Protein Aggregation, 100 μM cmpd; for IC50: inhibition of cryAB(R120G) protein aggregation. The gist of the method:
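Recombinant human cryAB R120G at 15 μM final in 50 mM Tris, 100 mM NaCl, 5 mM DTT, 0.01% Triton X-100, 0.05% PEG-8000 with 4% DMSO. Compounds added from 2-fold serial DMSO dilutions, run in quadruplicate; aggregation followed kinetically by turbidity.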

As for `CCn1nc(C(CNS(=O)(=O)c2ccc3cc[nH]c3c2)N(C)C)c2ccccc21` (centres unmarked) [Compound 72, N-(2-(dimethylamino)-2-(1-ethyl-1H-indazol-3-yl)ethyl)-1H-indole-6-sulfonamide], the inhibition at 25 µM was determined as 62%, the inhibition at 100 µM was 98.2% and the IC50 was in the range of 10 to 50 µM.
Regarding `Cc1cccc2c(C(CNS(=O)(=O)c3ccc4cc[nH]c4c3)N(C)C)cn(C)c12` (centres unmarked) [Compound 73, N-(2-(1,7-dimethyl-1H-indol-3-yl)-2-(dimethylamino)ethyl)-1H-indole-6-sulfonamide], the inhibition at 25 µM was 57% and the inhibition at 100 µM turned out to be 99.5%.
Consider `CO[C@@H]1CCN([C@H](CNS(=O)(=O)c2ccc3cc[nH]c3c2)c2cn(C)c3ccccc23)C1` [Compound 74, N-((S)-2-((R)-3-methoxypyrrolidin-1-yl)-2-(1-methyl-1H-indol-3-yl)ethyl)-1H-indole-6-sulfonamide], for which the inhibition at 25 µM was found to be 40% and the inhibition at 100 µM was 99.9%.
In the case of `CO[C@@H]1CCN([C@@H](CNS(=O)(=O)c2ccc3cc[nH]c3c2)c2cn(C)c3ccccc23)C1` [Compound 75, N-((R)-2-((R)-3-methoxypyrrolidin-1-yl)-2-(1-methyl-1H-indol-3-yl)ethyl)-1H-indole-6-sulfonamide], the inhibition at 25 µM was -10% and the inhibition at 100 µM amounted to 99.2%.
In the case of `C[C@@H]1CCN([C@H](CNS(=O)(=O)c2ccc3cc[nH]c3c2)c2cn(C)c3ccccc23)C1` [Compound 76, N-((S)-2-(1-methyl-1H-indol-3-yl)-2-((R)-3-methylpyrrolidin-1-yl)ethyl)-1H-indole-6-sulfonamide], the inhibition at 25 µM was 28% and the inhibition at 100 µM came out at 85.1%.
As to `C[C@@H]1CCN([C@@H](CNS(=O)(=O)c2ccc3cc[nH]c3c2)c2cn(C)c3ccccc23)C1` [Compound 77, N-((R)-2-(1-methyl-1H-indol-3-yl)-2-((R)-3-methylpyrrolidin-1-yl)ethyl)-1H-indole-6-sulfonamide], the inhibition at 25 µM amounted to 88% and the inhibition at 100 µM stood at 100%.
In the case of `O=S(=O)(NC[C@H](c1cnc2ccccn12)N1CCCC1)c1ccc2cc[nH]c2c1` [Compound 78, (R)-N-(2-(imidazo[1,2-a]pyridin-3-yl)-2-(pyrrolidin-1-yl)ethyl)-1H-indole-6-sulfonamide], the inhibition at 25 µM amounted to 23% and the inhibition at 100 µM was 99.6%.
As to `O=S(=O)(NC[C@@H](c1cnc2ccccn12)N1CCCC1)c1ccc2cc[nH]c2c1` [Compound 79, (S)-N-(2-(imidazo[1,2-a]pyridin-3-yl)-2-(pyrrolidin-1-yl)ethyl)-1H-indole-6-sulfonamide], the inhibition at 25 µM turned out to be 8% and the inhibition at 100 µM was 98.7%.
For the compound `Cn1cc([C@@H](CNS(=O)(=O)c2ccc3cc[nH]c3c2)N2CCCC2)c2cnccc21` [Compound 80, (S)-N-(2-(1-methyl-1H-pyrrolo[3,2-c]pyridin-3-yl)-2-(pyrrolidin-1-yl)ethyl)-1H-indole-6-sulfonamide], the inhibition at 25 µM was -28% and the inhibition at 100 µM stood at 95.1%.
On to `Cn1cc([C@H](CNS(=O)(=O)c2ccc3cc[nH]c3c2)N2CCCC2)c2cnccc21` [Compound 81, (R)-N-(2-(1-methyl-1H-pyrrolo[3,2-c]pyridin-3-yl)-2-(pyrrolidin-1-yl)ethyl)-1H-indole-6-sulfonamide], for which the inhibition at 25 µM was -12% and the inhibition at 100 µM came out at 23%.
In the same order, the values of `Cn1cc([C@@H](CNS(=O)(=O)c2ccc3cc[nH]c3c2)N2CCCC2)c2ccncc21` [Compound 82, (S)-N-(2-(1-methyl-1H-pyrrolo[2,3-c]pyridin-3-yl)-2-(pyrrolidin-1-yl)ethyl)-1H-indole-6-sulfonamide] are 16% and 38%.
Consider `Cn1cc([C@H](CNS(=O)(=O)c2ccc3cc[nH]c3c2)N2CCCC2)c2ccncc21` [Compound 83, (R)-N-(2-(1-methyl-1H-pyrrolo[2,3-c]pyridin-3-yl)-2-(pyrrolidin-1-yl)ethyl)-1H-indole-6-sulfonamide], for which the inhibition at 25 µM was 1% and the inhibition at 100 µM was 26%.
In the same order, the values of `Cn1cc([C@@H](CNS(=O)(=O)c2ccc3cc[nH]c3c2)NCc2cncs2)c2ccccc21` [Compound 84, (S)-N-(2-(1-methyl-1H-indol-3-yl)-2-((thiazol-5-ylmethyl)amino)ethyl)-1H-indole-6-sulfonamide] are 25% and 71.8%.
In the same order, the values of `Cn1cc([C@H](CNS(=O)(=O)c2ccc3cc[nH]c3c2)NCc2cncs2)c2ccccc21` [Compound 85, (R)-N-(2-(1-methyl-1H-indol-3-yl)-2-((thiazol-5-ylmethyl)amino)ethyl)-1H-indole-6-sulfonamide] are 37% and 84.4%.
Regarding `CN(Cc1cncs1)[C@H](CNS(=O)(=O)c1ccc2cc[nH]c2c1)c1cn(C)c2ccccc12` [Compound 86, (S)-N-(2-(methyl(thiazol-5-ylmethyl)amino)-2-(1-methyl-1H-indol-3-yl)ethyl)-1H-indole-6-sulfonamide], the inhibition at 25 µM came out at 80% and the inhibition at 100 µM came to 94.1%.
Regarding `CN(Cc1cncs1)[C@@H](CNS(=O)(=O)c1ccc2cc[nH]c2c1)c1cn(C)c2ccccc12` [Compound 87, (R)-N-(2-(methyl(thiazol-5-ylmethyl)amino)-2-(1-methyl-1H-indol-3-yl)ethyl)-1H-indole-6-sulfonamide], the inhibition at 25 µM worked out at 47% and the inhibition at 100 µM was 83.2%.
Consider `CNC(CNS(=O)(=O)c1ccc2cc[nH]c2c1)c1cn(C)c2ccccc12` (centres unmarked) [Compound 88, N-(2-(1-methyl-1H-indol-3-yl)-2-(methylamino)ethyl)-1H-indole-6-sulfonamide], for which the inhibition at 25 µM worked out at 21% and the inhibition at 100 µM was 94.3%.
Take `Cn1nc([C@@H](CNS(=O)(=O)c2ccc3cc[nH]c3c2)N2CCCC2)c2ccccc21` [Compound 89, (R)-N-(2-(1-methyl-1H-indazol-3-yl)-2-(pyrrolidin-1-yl)ethyl)-1H-indole-6-sulfonamide]: the inhibition at 25 µM is 98.4%, the inhibition at 100 µM came to 99.7% and the 50% inhibitory concentration (IC50) was at most 10 µM.
For `Cn1nc([C@H](CNS(=O)(=O)c2ccc3cc[nH]c3c2)N2CCCC2)c2ccccc21` [Compound 90, (S)-N-(2-(1-methyl-1H-indazol-3-yl)-2-(pyrrolidin-1-yl)ethyl)-1H-indole-6-sulfonamide], the inhibition at 25 µM is -15% and the inhibition at 100 µM came to 65.6%.
`CCn1nc([C@H](CNS(=O)(=O)c2ccc3cc[nH]c3c2)N2CCCC2)c2ccccc21` [Compound 92, (S)-N-(2-(1-ethyl-1H-indazol-3-yl)-2-(pyrrolidin-1-yl)ethyl)-1H-indole-6-sulfonamide]: the inhibition at 25 µM stood at 49% and the inhibition at 100 µM was determined as 99.3%.
For the compound `CCn1nc([C@@H](CNS(=O)(=O)c2ccc3cc[nH]c3c2)N2CCC2)c2ccccc21` [Compound 94, (R)-N-(2-(azetidin-1-yl)-2-(1-ethyl-1H-indazol-3-yl)ethyl)-1H-indole-6-sulfonamide], the inhibition at 25 µM amounted to 97.7% and the inhibition at 100 µM came to 99.1%.

Values taken from patent US12637425B2, “Compounds and formulations for treating ophthalmic diseases” (Visus Therapeutics, Inc., priority 2020, dated 2026).
